Measurements from patent publication EP2626073A1, “Compound for use in the prevention and/or treatment of a neurogenerative disease or a disease involving an activation of phosphodiesterase-4 (PDE4)” (Harmonic Pharma, priority 2012, dated 2013).

Legend:
[1] = test system: Rat cortical neurons; experiment: Aβ oligomer-induced neuronal death, MTT assay; type: cell-based, Wistar rat; conditions: 24 h
Experimental: Cell culture: Cortical neurons from embryonic day 16-17 Wistar rat fetuses were prepared as follows. Dissociated cortical cells were plated at 4.5-5.0 10^4 cells/cm^2 in plastic dishes precoated with 1.5 mg/mL polyornithine (Sigma). Cells were cultured in a chemically defined Dulbecco's modified eagle's/F12 medium free of serum (Gibco) and supplemented with hormones, proteins and salts. Cultures were kept at 35°C in a humidified 5% CO2 atmosphere, and at 6-7 DIV, cortical population was determined to be at least 97% neuronal by immunostaining.
Preparation of low-n β-amyloid (Aβ) oligomers: The peptide used is Aβ1-42 from Bachem (ref H1368, batch number: 1025459). The oligomeric preparation contains a mixture of stable dimers, trimers and tetramers of Aβ1-42 peptide, as well as monomeric forms of the peptide.
Preparation of tivozanib solution: Tivozanib was dissolved in DMSO. A stock solution (10 mM DMSO) was prepared, and aliquots were stored at -20 °C before use.
Treatment and measurement of cell viability: All experiments were done in 48 well plates. […] Following 24h of incubation, neuronal viability was monitored using the MTT assay (Garcia et al., The Journal of Neuroscience, June 2,2010, 30(22), 7516-7527; Desbene et al., Neurobiology of Aging, 33 (2012) 1123.e17-1123.e-29). Data were obtained from one experiment with 4 determinations each and expressed as means + SD.

[2] = biological target: PDE4; experiment: PDE4 isolated enzyme two-step radioenzymatic PDE assay; type: biochemical; conditions: 1 µM cAMP substrate, 30°C, 30 min; read-out: inhibition concentration value (IC50)
[3] = test system: cAMP level in HEK293 cells; experiment: Measurement of cAMP level by ELISA; type: cell-based
Experimental: Measurement of cAMP level: HEK293 cells were cultured in DMEM medium containing 10 % FCS. Cells were plated in 12-well plates at a density of 400.000 cells per well and cultured for 24h at 37°C in a humidified 6% CO2 atmosphere. Cells were then incubated for 1 h with increasing concentrations of tivozanib and then treated with vehicle or 25 µM forskolin for 15 minutes. Following washing steps and cell lysis, cellular level of cAMP level was monitored using an ELISA assay (Cyclic AMP XP assay kit - Cell signaling). Data are from 2 experiments performed in duplicate. Data are represented as fold increase of cAMP as compared to experiment using forskolin only, designed as 1.0 (figure 7).
Effects of tivozanib on cAMP level in HEK293 cells: In order to evaluate the potential effect of tivozanib on PDE4 activity in living cells, the HEK293 cell line was used. These cells are widely used for identification and validation of PDE4 modulators in mild as well as high throughput screening assays. Indeed, the control of cAMP level and hydrolysis in HEK293 cells are predominantly supported by PDE4.

[4] = test system: Male C57BL/6 mice; experiment: Y-maze test of spatial working memory after icv Aβ oligomers; type: in vivo
Experimental: Animals: All animal experiments were carried out according to the National Institute of Health (NIH) guidelines for the care and use of laboratory animals, and approved by the French Ministry for Research and Technology. Animals were housed at a standard temperature (22±1°C) and in a light-controlled environment (lights on from 7 am to 8 pm) with ad libitum access to food and water. Upon arrival, Male C57BL/6 mice (C57BL/6J Rj, ref SC-CJ-12w-M, Janvier, France) were group housed. From 1 week before the experiment started and until the end of the experiment, mice were individually housed. Animals were monitored twice-a-day by laboratory personnel (8 am and 4 pm). […]
Surgery and intracerebroventricular (icv) infusion of low-n Aβ oligomers: Immediate spatial working memory performance was assessed by recording spontaneous alternation behavior in a Y-maze system, as previously described (Youssef et al., Neurobiology of Aging, 29 (2008) 1319-1333; Garcia et al., The Journal of Neuroscience, June 2,2010, 30(22) 7516-7527). […]
Investigation of the spatial working memory - Y maze test: Immediate spatial working memory performance was assessed by recording spontaneous alternation behavior in a Y-maze system, as previously described (Youssef et al., 2008; Garcia et al., 2010, see references above). […]

Molecule	Aβ oligomer-induced cell death (cell viability, MTT) ([1]; tivozanib up to 10 µM added simultaneously with 1 µM Aβ1-42 oligomers)	IC50 [2] [µM]	cAMP level ([3]; absence of forskolin, increasing concentrations up to 50 µM, 1 h)	cAMP level ([3]; presence of 25 µM forskolin for 15 minutes, increasing concentrations, 1 h pre-incubation)	behavior and spontaneous alternation performance ([4]; group C: 30 mg/kg/day per os, vehicle icv, test day +4)	spatial working memory (spontaneous alternation) ([4]; group D: 30 mg/kg/day per os day -2 to +4, Aβ oligomers 50 pmol icv day 0, test day +4)	decrease of cell viability ([1]; 1 µM Aβ1-42 oligomers alone, figure 6B CTRL) [%]
COc1cc2nccc(Oc3ccc(NC(=O)Nc4cc(C)on4)c(Cl)c3)c2cc1OC [tivozanib, N-{2-chloro-4-[(6,7-dimethoxy-4-quinolyl)oxy]-phenyl}-N'-(5-methyl-3-isoxazolyl)urea]	protected cells towards Aβ oligomer-induced cell death	4.8	did not result in an increase of cAMP level	dose-response accumulation of cAMP	displayed a normal behavior	significantly improved spatial working memory	–
Aβ1-42 oligomers	–	–	–	–	–	–	~40
